Data from patent US20240327709A1, “NON-LAMELLAR LIQUID CRYSTAL-FORMING COMPOSITION AND USE THEREOF” (FARNEX INCORPORATED, priority 2021, published 2024).

Key:
[1] = Gel formation test with water; type: physicochemical; conditions: amphiphilic compound mixed with water alone, no phospholipid
Description: (§1) The precursor formulations Nos. 1 to 23 were subjected to gel formation test. A portion (about 100 to 300 mg) of each precursor formulation was added to an excess amount (about 0.5 to 2 mL) of water for injection in a vial, and the whole was mixed at room temperature (25° C.) with a spatula and/or a vortex mixer.
The precursor formulations Nos. 26 to 31 were subjected to gel formation test in a similar manner to that in Example 2.
as §1, with “Nos. 36” for “Nos. 1”, “to 40” for “to 23”

[2] = SAXS liquid crystal structure analysis of gel compositions; type: physicochemical; conditions: amphiphilic compound mixed with water alone
Excerpt: The gel compositions formed from the precursor formulations Nos. 1 to 23 were each directly embedded in a pinhole slit and subjected to small-angle X-ray scattering diffractometry with a small-angle x-ray scattering (SAXS) apparatus (manufactured by Rigaku Corp., Nano-Viewer) to analyze the non-lamellar liquid crystal structure.
The obtained liquid crystal phases and scattering vector values q1 [nm^−1] of peaks located at the smallest angle are shown in Tables 1 and 2. […] There were some gel compositions having two types of different liquid crystal phases.

SMILES	gel composition formation [1]	liquid crystal phase [2]	q1 [2] [nm⁻¹]
CCCCC/C=C\C/C=C\CCCCCCCC(=O)OCCC(C)O (stereo not drawn) [1,3-Butylene glycol monolinoleate]	failed to form a gel composition	–	–
CCCCC/C=C\C/C=C\CCCCCCCC(=O)OCCC(C)(C)O [3-methyl-1,3-butanediol monolinoleate]	failed to form a gel composition	–	–
CCCCCCCC/C=C\CCCCCCCC(=O)OCCOCCO [diethylene glycol monooleate, Diethylene glycol monooleate]	formed a gel composition	HII	1.35
CCCCC/C=C\C/C=C\CCCCCCCC(=O)OC1COC2C(O)COC12 (stereo not drawn) [isosorbide monolinoleate]	failed to form a gel composition	–	–
